The target in the data set is HBV. The note with it: ASO.

Values joined by “and” are separate entries in the source; they are usually repeats but may differ in a detail not shown here. Equal values may be shown once. HELM strings list units from the 5' end as sugar, base in round brackets, then linkage (d deoxyribose, r ribose, m 2'-O-methyl, p phosphodiester). Methylation of C is not given here. [moe] = 2'-O-(2-methoxyethyl) (MOE); [cEt] = constrained ethyl (cEt); [sp] = phosphorothioate linkage

Consider “RNA1{[moe](C)[sp].[moe](T)[sp].d(G)[sp].d(G)[sp].d(A)[sp].d(G)[sp].d(C)[sp].d(C)[sp].d(A)[sp].d(C)[sp].d(C)[sp].[moe](A)[sp].[moe](G)[sp].[moe](C)[sp].[moe](A)[sp].[moe](G)[sp].[moe](G)}$$$$V2.0”, for which the target mRNA inhibition (HepG2, 0.07 µM) is 66% and 64%. For “RNA1{[moe](G)[sp].[cEt](A)[sp].[cEt](A)[sp].d(G)[sp].d(A)[sp].d(T)[sp].d(G)[sp].d(A)[sp].d(G)[sp].d(G)[sp].d(C)[sp].d(A)[sp].d(T)[sp].[cEt](A)[sp].[cEt](G)[sp].[moe](C)}$$$$V2.0”, the target mRNA inhibition (HepG2, 0.07 µM) was 69% and 66%.

“RNA1{[moe](G)[sp].[cEt](A)[sp].[cEt](A)[sp].d(G)[sp].d(T)[sp].d(C)[sp].d(C)[sp].d(A)[sp].d(C)[sp].d(C)[sp].d(A)[sp].d(C)[sp].d(G)[sp].[cEt](A)[sp].[cEt](G)[sp].[moe](T)}$$$$V2.0”: the target mRNA inhibition (HepG2, 0.07 µM) is 59% and 53%. With “RNA1{[moe](G)[sp].[cEt](A)[sp].[cEt](G)[sp].d(A)[sp].d(A)[sp].d(G)[sp].d(T)[sp].d(C)[sp].d(C)[sp].d(A)[sp].d(C)[sp].d(C)[sp].d(A)[sp].[cEt](C)[sp].[cEt](G)[sp].[moe](A)}$$$$V2.0”, the target mRNA inhibition (HepG2, 0.07 µM) is 62% and 54%. On to “RNA1{[moe](G)[sp].[cEt](A)[sp].d(A)[sp].d(C)[sp].d(A)[sp].d(A)[sp].d(A)[sp].d(T)[sp].d(G)[sp].d(G)[sp].d(C)[sp].d(A)[sp].[cEt](C)[sp].[moe](T)[sp].[cEt](A)[sp].[moe](G)}$$$$V2.0”, for which the target mRNA inhibition (HepG2, 0.07 µM) is 75% and 79%. As for “RNA1{[moe](G)[sp].[cEt](A)[sp].d(A)[sp].d(C)[sp].d(T)[sp].d(G)[sp].d(G)[sp].d(A)[sp].d(G)[sp].d(C)[sp].d(C)[sp].d(A)[sp].[cEt](C)[sp].[moe](C)[sp].[cEt](A)[sp].[moe](G)}$$$$V2.0”, the target mRNA inhibition (HepG2, 0.07 µM) is 68% and 56%. With “RNA1{[moe](G)[sp].[cEt](A)[sp].d(A)[sp].d(G)[sp].d(C)[sp].d(G)[sp].d(A)[sp].d(A)[sp].d(G)[sp].d(T)[sp].d(G)[sp].d(C)[sp].[cEt](A)[sp].[moe](C)[sp].[cEt](A)[sp].[moe](C)}$$$$V2.0”, the target mRNA inhibition (HepG2, 0.07 µM) is 74% and 76%. As for “RNA1{[moe](G)[sp].[cEt](A)[sp].d(G)[sp].d(A)[sp].d(A)[sp].d(G)[sp].d(T)[sp].d(C)[sp].d(C)[sp].d(A)[sp].d(C)[sp].d(C)[sp].[cEt](A)[sp].[moe](C)[sp].[cEt](G)[sp].[moe](A)}$$$$V2.0”, for the setting “HepG2, 0.07 µM”, the target mRNA inhibition was 34% and 43%. As for “RNA1{[moe](G)[sp].[cEt](C)[sp].[cEt](A)[sp].d(C)[sp].d(A)[sp].d(G)[sp].d(C)[sp].d(T)[sp].d(T)[sp].d(G)[sp].d(G)[sp].d(A)[sp].d(G)[sp].[cEt](G)[sp].[cEt](C)[sp].[moe](T)}$$$$V2.0”, the target mRNA inhibition (HepG2, 0.07 µM) was 27% and 12%. In the case of “RNA1{[moe](G)[sp].[cEt](C)[sp].[cEt](A)[sp].d(T)[sp].d(A)[sp].d(G)[sp].d(C)[sp].d(A)[sp].d(G)[sp].d(C)[sp].d(A)[sp].d(G)[sp].d(G)[sp].[cEt](A)[sp].[cEt](T)[sp].[moe](G)}$$$$V2.0”, the target mRNA inhibition (HepG2, 0.07 µM) is 67% and 71%. As to “RNA1{[moe](G)[sp].[cEt](C)[sp].d(A)[sp].d(G)[sp].d(A)[sp].d(G)[sp].d(G)[sp].d(T)[sp].d(G)[sp].d(A)[sp].d(A)[sp].d(G)[sp].[cEt](C)[sp].[moe](G)[sp].[cEt](A)[sp].[moe](A)}$$$$V2.0”, the target mRNA inhibition runs as follows: (HepG2, 0.0092593 µM) 21%; (HepG2, 0.0277778 µM) 48%; (HepG2, 0.07 µM) 80% and 85%; (HepG2, 0.0833333 µM) 74%; (HepG2, 0.25 µM) 88%.

Take “RNA1{[moe](G)[sp].[cEt](G)[sp].[cEt](T)[sp].d(G)[sp].d(A)[sp].d(A)[sp].d(G)[sp].d(C)[sp].d(G)[sp].d(A)[sp].d(A)[sp].d(G)[sp].d(T)[sp].[cEt](G)[sp].[cEt](C)[sp].[moe](A)}$$$$V2.0”: the target mRNA inhibition (HepG2, 0.07 µM) is 79% and 75%. With “RNA1{[moe](G)[sp].[cEt](G)[sp].d(A)[sp].d(G)[sp].d(T)[sp].d(T)[sp].d(C)[sp].d(C)[sp].d(G)[sp].d(C)[sp].d(A)[sp].d(G)[sp].[cEt](T)[sp].[moe](A)[sp].[cEt](T)[sp].[moe](G)}$$$$V2.0”, the target mRNA inhibition is, setting by setting: (HepG2, 0.0092593 µM) 12%; (HepG2, 0.0277778 µM) 49%; (HepG2, 0.07 µM) 78% and 87%; (HepG2, 0.0833333 µM) 79%; (HepG2, 0.25 µM) 89%. As for “RNA1{[moe](G)[sp].[cEt](G)[sp].d(C)[sp].d(A)[sp].d(T)[sp].d(A)[sp].d(G)[sp].d(C)[sp].d(A)[sp].d(G)[sp].d(C)[sp].d(A)[sp].[cEt](G)[sp].[moe](G)[sp].[cEt](A)[sp].[moe](T)}$$$$V2.0”, where the note is “HepG2, 0.07 µM”, the target mRNA inhibition is 74% and 75%. On to “RNA1{[moe](G)[sp].[moe](A)[sp].[moe](A)[sp].[moe](C)[sp].[moe](C)[sp].d(A)[sp].d(C)[sp].d(T)[sp].d(G)[sp].d(A)[sp].d(A)[sp].d(C)[sp].d(A)[sp].d(A)[sp].[moe](A)[sp].[moe](T)[sp].[moe](G)}$$$$V2.0”, for which the target mRNA inhibition (HepG2, 0.07 µM) was 48% and 27%.

For “RNA1{[moe](G)[sp].[moe](A)[sp].[moe](A)[sp].[moe](G)[sp].[moe](C)[sp].d(G)[sp].d(A)[sp].d(A)[sp].d(G)[sp].d(T)[sp].d(G)[sp].d(C)[sp].d(A)[sp].d(C)[sp].[moe](A)[sp].[moe](C)[sp].[moe](G)}$$$$V2.0”, for the setting “HepG2, 0.07 µM”, the target mRNA inhibition is 80% and 58%.

As to “RNA1{[moe](G)[sp].[moe](A)[sp].[moe](A)[sp].[moe](G)[sp].d(C)[sp].d(G)[sp].d(A)[sp].d(A)[sp].d(G)[sp].d(T)[sp].d(G)[sp].d(C)[sp].d(A)[sp].[moe](C)[sp].[moe](A)[sp].[moe](C)[sp].[moe](G)}$$$$V2.0”, the target mRNA inhibition (HepG2, 0.07 µM) is 65% and 57%.

Take “RNA1{[moe](G)[sp].[moe](A)[sp].[moe](A)[sp].d(C)[sp].d(T)[sp].d(G)[sp].d(G)[sp].d(A)[sp].d(G)[sp].d(C)[sp].d(C)[sp].d(A)[sp].[moe](C)[sp].[moe](C)[sp].[moe](A)[sp].[moe](G)[sp].[moe](C)}$$$$V2.0”: the target mRNA inhibition (HepG2, 0.07 µM) was 65% and 51%. Take “RNA1{[moe](G)[sp].[moe](A)[sp].[moe](A)[sp].d(G)[sp].d(T)[sp].d(C)[sp].d(C)[sp].d(A)[sp].d(C)[sp].d(C)[sp].d(A)[sp].d(C)[sp].d(G)[sp].[cEt](A)[sp].[cEt](G)[sp].[cEt](T)}$$$$V2.0”: the target mRNA inhibition (HepG2, 0.07 µM) was 34% and 33%. As for “RNA1{[moe](G)[sp].[moe](A)[sp].[moe](G)[sp].[moe](G)[sp].d(C)[sp].d(A)[sp].d(T)[sp].d(A)[sp].d(G)[sp].d(C)[sp].d(A)[sp].d(G)[sp].d(C)[sp].[moe](A)[sp].[moe](G)[sp].[moe](G)}$$$$V2.0”, the target mRNA inhibition (HepG2, 0.07 µM) is 45% and 50%. Same read-out and setting: the figure for “RNA1{[moe](G)[sp].[moe](A)[sp].[moe](G)[sp].[moe](G)[sp].d(T)[sp].d(G)[sp].d(A)[sp].d(A)[sp].d(G)[sp].d(C)[sp].d(G)[sp].d(A)[sp].d(A)[sp].[moe](G)[sp].[moe](T)[sp].[moe](G)[sp].[moe](C)}$$$$V2.0” is 63% and 54%. With “RNA1{[moe](G)[sp].[moe](A)[sp].[moe](G)[sp].d(T)[sp].d(T)[sp].d(C)[sp].d(C)[sp].d(G)[sp].d(C)[sp].d(A)[sp].d(G)[sp].d(T)[sp].[moe](A)[sp].[moe](T)[sp].[moe](G)[sp].[moe](G)[sp].[moe](A)}$$$$V2.0”, the target mRNA inhibition (HepG2, 0.07 µM) is 61% and 62%.

(Values after the OligoGym collection.)
